Test results published in article PMC2744866 (Journal of medicinal chemistry, 2009).
“Also recorded” adds a separate entry of the source.

Legend:
human recombinant BHMT [1] = target: T1, human recombinant BHMT (Homo sapiens, UniProt Q93088); experiment: BHMT inhibition assay; assay type: biochemical; details: for inhibition of BHMT, in words: qualitative statement; for % Inhibition (average of triplicates): 20 μM inhibitor, 0.25 mM betaine, 0.1 mM DL-homocysteine, pH 7.5, 37 °C
T1 sequence (Q93088 1-406): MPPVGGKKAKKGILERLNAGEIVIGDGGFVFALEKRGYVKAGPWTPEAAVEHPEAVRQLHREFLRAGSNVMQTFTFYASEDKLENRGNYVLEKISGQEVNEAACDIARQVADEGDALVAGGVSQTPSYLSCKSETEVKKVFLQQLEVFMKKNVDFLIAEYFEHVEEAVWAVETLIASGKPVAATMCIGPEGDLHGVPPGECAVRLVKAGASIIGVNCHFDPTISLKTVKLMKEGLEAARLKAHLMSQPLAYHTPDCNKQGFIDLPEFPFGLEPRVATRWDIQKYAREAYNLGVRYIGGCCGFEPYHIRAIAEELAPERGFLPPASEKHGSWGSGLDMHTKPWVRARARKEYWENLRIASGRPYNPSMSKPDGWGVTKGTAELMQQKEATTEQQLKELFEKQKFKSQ

[2] = 1H and 13C NMR pH titration; assay type: physicochemical; details: NMR titration over broad pH range
human recombinant BHMT [3] = target: T1, human recombinant BHMT; experiment: Isothermal titration calorimetry of inhibitor binding to BHMT; details: ITC
[4] = pH 7.5, read-out: % Inhibition (average of triplicates)

Compound | inhibition of BHMT, in words (human recombinant BHMT [1]) | also measured
NC(CC[Se]CCCCC(=O)O)C(=O)O (racemic) [Compound 9, (RS)-5-(3-Amino-3-carboxypropylselanyl)pentanoic Acid] | strongly inhibited | fold weaker than compound 1 (human recombinant BHMT [1]; compared with reference inhibitor 1): 5 fold
C[N+](C)(CSCCC(N)C(=O)O)CC(=O)[O-] (racemic) [Compound 11, (RS)-2-{[(3-Amino-3-carboxypropylthio)methyl]dimethylammonium}acetate] |  | % Inhibition (average of triplicates) (human recombinant BHMT [1]): completely inactive
C[N+](C)(CCSCCC(N)C(=O)O)CC(=O)[O-] (racemic) [Compound 12, (RS)-2-{[2-(3-Amino-3-carboxypropylthio)ethyl]dimethylammonium}acetate] |  | % Inhibition (average of triplicates) (human recombinant BHMT [1]): very weak inhibition
CN(CCSCCC(N)C(=O)O)CC(=O)O (racemic) [Compound 13, (RS)-2-Amino-4-{2-[(carboxymethyl)(methyl)amino]ethylthio}-butanoic Acid] | promising, but still moderate, inhibition | pK2 of secondary/tertiary amino group [2]: ~9.5
NC(CCSCCNCC(=O)O)C(=O)O (racemic) [Compound 16, (RS)-2-Amino-4-[2-(carboxymethylamino)ethylthio]butanoic Acid] |  | pK2 of secondary/tertiary amino group [2]: ~9.5
C[N+](C)(CCCSCCC(N)C(=O)O)CC(=O)[O-] (racemic) [Compound 18, (RS)-2-{[3-(3-Amino-3-carboxypropylthio)propyl]dimethylammonio}acetate] | did not inhibit BHMT at all | 
C[C@@H](CCSCC[C@@H](N)C(=O)O)CC(=O)O (racemic) [Compound 20] | highly potent inhibitors; also recorded: equipotent | 
CC(C)(CCSCCC(N)C(=O)O)CC(=O)O (racemic) [Compound 21] | highly potent inhibitors | enthalpic contribution ΔH (human recombinant BHMT [3]; 25 °C, pH 7.5): -29.5 ± 1.2 kcal/mol; entropic contribution −TΔS (human recombinant BHMT [3]; 25 °C, pH 7.5): 19.6 ± 1.3 kcal/mol; association constant Ka (human recombinant BHMT [3]; 25 °C, pH 7.5, S-enantiomer): (2.0 ± 0.6) × 10^7 M^−1; stoichiometry of the main interaction (human recombinant BHMT [3]; inhibitor per BHMT monomer): 1.1 ± 0.1
NC(CCSCCCCC(=O)O)C(=O)O (stereo not shown) [Compound 1, reference compound] |  | inhibition at 1 µM (human recombinant BHMT [1]; [4]): 97.6%; inhibition at 20 µM (human recombinant BHMT [1]; [4]): 100%

Second part, led by results:

inhibition of BHMT, in words (human recombinant BHMT [1]) | Compound | also measured
very weak inhibitor | NC(CCSSCCCC(=O)O)C(=O)O (racemic) [Compound 5, (RS)-2-Amino-4-[(3-carboxypropyl)disulfanyl]butanoic acid] | 
moderate inhibitory potency | NC(CCSCSCCC(=O)O)C(=O)O (racemic) [Compound 6, (RS)-2-Amino-4-[(2-carboxyethylthio)methylthio]butanoic Acid] | 
low inhibitory potency | NC(CCCSCCCC(=O)O)C(=O)O (racemic) [Compound 7, (RS)-2-Amino-5-(3-carboxypropylthio)pentanoic Acid] | 
almost inactive | NC(CCOCCCCC(=O)O)C(=O)O (racemic) [Compound 8, (RS)-5-(3-Amino-3-carboxypropoxy)pentanoic Acid] | 
almost inactive | NC(CCCCCCCC(=O)O)C(=O)O (racemic) [Compound 10, (RS)-2-Aminodecanedioic Acid] | 
only a modest inhibitor | CN(CCCSCCC(N)C(=O)O)CC(=O)O (racemic) [Compound 19, (RS)-2-Amino-4-{3-[(carboxymethyl)(methyl)amino]propylthio}butanoic Acid] | 
